Data on six compounds can be found in US11590202B2, “Inhibitors of LTβR-NFκB signaling pathways for treating inflammation and cancer” (University of Maryland, Baltimore, priority 2017, dated 2023).

What all share (type): cell-based, mouse
The test system of series [1] is LTβR-mediated non-classical NFκB (NIK) signaling in LEC and SVEC4-10. Put plainly: Immunoblot of non-classical NFκB (NIK) signaling after LTβR activation. On the procedure: (§1) LECs were lysed in buffer containing 20 mM HEPES (pH 7.4), 150 mM NaCl, 10 mM NaF, 2 mM Na3VO4, 1 mM EDTA, 1 mM EGTA, 0.5% Triton X-100, 0.1 mM DTT, 1 mM PMSF and protease inhibitor cocktail (Roche, Indianapolis, Ind.). Protein in the cell extract was quantified using protein quantification kit (Bio-Rad, Philadelphia, Pa.) and 10 μg total protein was run on Novex™ WedgeWell™ 4-20% Tris-Glycine Mini Gels (Invitrogen) and transferred to an Immobilon-P membrane (Bio-Rad). Membranes were probed with anti-NF-κB2 p100/p52, NIK, phospho-IKKα/β(Ser176/180) (16A6), IκBα, TRAF2, TRAF3, and GAPDH antibodies. For co-IP assays, 500 μg total protein of cell extract was incubated with 1 μg of anti-mLTβR (5G11b) overnight, followed by 4 hour incubation with 25 μL protein G Agarose beads (Sigma-Aldrich). The beads were then washed with lysis buffer and boiled in 2× Laemmli sample buffer (Bio-Rad).

The subject of series [2] is LTβR complex (TRAF2, TRAF3). The series can be described thus: Co-immunoprecipitation of LTβR complex with anti-LTβR. The note with it: LEC pretreated, then anti-LTβR mAb for 10 minutes. As to the method: as §1
Series [3] concerns LTβR-induced chemokines and cell adhesion molecules in LEC and SVEC4-10. Put plainly: LTβR-induced chemokine and adhesion molecule expression (qRT-PCR, ELISA, flow cytometry, immunohistochemistry). The note with it: LEC or SVEC4-10, anti-LTβR mAb (plus CL), peptides 20 μM; for LTβR-induced CCL2 expression/production: NIKi 50 μM, BAY11 25 μM. On the procedure:
LECs in PBS containing 0.2 mM calcium, 0.1 mM magnesium and 0.5% w/v BSA were treated with anti-CD16/32 (clone 93, eBioscience) to block Fc receptors, and then stained with antibodies to cell surface molecules in the same buffer. Flow cytometry antibodies used were: APC-eflour780-anti-mouse CD4 (GK1.5, eBioscience); PE-anti-mouse CD25 (PC61.5, eBioscience); APC-anti-mouse VCAM-1 (clone 647, eBioscience). For detection of LTα2β1, T cells were incubated with MOPC21 or LTβRIg at 2 μg/mL for 60 minutes at 37° C. in HBSS with 2% FBS. Cells were washed, and then stained for 45 minutes at 4° C. with BV421-rat anti-mouse IgG1 along with antibodies to other cell surface markers. Cells were then washed and fixed with 4% paraformaldehyde and run on an LSR Fortessa flow cytometer (BD Biosciences, San Jose, Calif.). Results were analyzed with software FlowJo 8.7 (Treestar).
(§2) One μg of total RNA extracted using Trizol reagent (Invitrogen) was reverse-transcribed into cDNA with GoScript™ Reverse Transcription System (Promega, Fitchburg, Wis.). mRNA expression levels were quantified by real-time PCR using SYBR Green Master Mix with an ABI Prism 7900HT (Applied Biosystems, Foster City, Calif.). Values for specific gene expression were normalized to house-keeping HPRT gene expression and were calculated as: 2^(Ct of HPRT-Ct specific gene). For the microarrays, total RNA of treated mLECs was extracted with RNeasy mini kit (Qiagen, Germantown, Md.) and analyzed for purity and integrity by capillary electrophoresis on an Agilent Bioanalyzer 2100 (Agilent Technologies, Inc. Santa Clara, Calif.). 100 ng/sample was subjected to amplification, followed by labeling and hybridization to Mouse Genome 430 2.0 GeneChips (Affymetrix, Santa Clara, Calif.). Sample amplification, labeling, hybridization, and detection were performed according to the manufacturer's protocols.
5×10^5 LECs or SVEC4-10 cells were plated in 12-well plates and treated with 20 μM peptides for 30 minutes at 37° C. Cells were then washed and incubated with anti-LTβR agonistic mAb (2 μg/mL) for 30 minutes at 4° C., followed by washing and then cross-linking with anti-rat IgG (2 μg/mL) for 6 or 16 hours at 37° C. The supernatants were collected and stored in −80° C. Mouse CCL2 and CCL21 were measured with ELISA kits from Biolegend, Inc. and R&D Systems (Minneapolis, Minn.), respectively.
(§3) LEC monolayers were stained for surface VCAM-1, LTβR or Lyve-1 with rat anti-mouse VCAM-1 (Clone 429, eBioscience), rat anti-mouse LTβR (Clone 3C8, eBioscience) or rabbit anti-mouse Lyve-1 (70R-LR003, Fitzgerald, Acton, Mass.), then were fixed for 20 minutes at 4° C. with 4% (w/v) paraformaldehyde (Affymetrix), permeabilized with PBS 0.2% (v/v) Triton X-100 (Sigma-Aldrich), and treated with 2% donkey serum for 10 minutes then incubated with rabbit anti-mouse CXCL12 (eBioscience), goat-anti-mouse CCL21 (Clone AF457, R&D System), or anti-NIK mouse monoclonal antibody (Clone A-12, Santa Cruz Biotechnology) overnight at 4° C. The primary antibodies were detected with Alexa Fluor […], 647 (Cy5), or 546 (Cy3)-conjugated donkey anti-goat, donkey anti-rabbit, or donkey anti-rat secondary antibodies (Jackson ImmunoResearch, West Grove, Pa.) for 1 hour at 4° C. Transwell membranes were transferred onto glass slides and visualized by fluorescent microscopy (Zeiss LSM 510 Meta, and LSMS Duo) with a ×60 or ×20 objective. Images were analyzed with Volocity version 6.3 software.
A general note: Real-time PCR tracks product formation cycle by cycle.

For series [4], the system named is TNFR1-mediated VCAM-1 expression in LEC. Put plainly: TNFα-stimulated VCAM-1 expression in LEC (qRT-PCR). The conditions noted are these: LEC stimulated with TNFα for 1 hour. As to the method: as §2
In series [5] the test system is LTβR-NIK signaling in LEC and SVEC4-10. Put plainly: Immunohistochemistry of LTβR, NIK and RelB in LEC and SVEC4-10. The conditions noted are these: anti-LTβR for 6 hours. As to the method:
as §3

In a further series the test system is LEC. Put plainly: MTT viability assay. The note with it: 20 μM peptides, without or with anti-LTβR mAb. On the procedure:
LECs were plated into 24-well tissue culture plates, incubated overnight, and treated with 20 μM peptides with or without agonist anti-LTβR (2 μg/mL) for 4 hours, followed by 3 hour incubation with 0.5 mg/mL MTT (3-(4, 5-Dimethylthiazol-2-yl)-2, 5 diphenyl tetrazolium bromide) (Sigma-Aldrich). 50 μL DMSO was added to cells before reading OD at 540 nm.
A general note: Formazan colour is commonly taken as a measure of viable cells.

Series [6] deals with classical NFκB signaling in LEC. The series can be described thus: Immunoblot of classical NFκB signaling (IKKα/β phosphorylation, IκBα degradation). The conditions noted are these: 2 μg/mL anti-LTβR mAb or 20 ng/mL TNFα. On the procedure: as §1
The mark [7] stands for this setting: pretreated with peptides or inhibitors, then anti-LTβR for 6 hours.

No end group written: not given here.

On to `CC(C)(C)c1ccc(S(=O)(=O)/C=C/C#N)cc1` [BAY11-7085], for which, in series [1] (setting [7]), the TRAF2 degradation entry is recorded as “not BAY11-7085 also prevented”. Moreover, in series [2], the “TRAF2 recruitment to the LTβR complex” value was “not BAY11-7085 was sufficient to inhibit” and the “TRAF3 recruitment to the LTβR complex” value was “not BAY11-7085 was sufficient to inhibit”. In series [3], the “LTβR-induced VCAM-1 expression” value is on record as “suppressed” and the “LTβR-induced CCL2 expression/production” value is “suppressed”. The “TNFR1-mediated VCAM-1 expression” value in series [4] is listed as “significantly inhibited”. The “NIK expression and co-localization with LTβR” value in series [5] is “neither ciLT, BAY11-7085, nor NIKi affected”.

Take RQIKIWFQNRRMKWKKTGNIYIYNGPVL [nciLT]: in the series with LEC, the “LEC viability (MTT)” value is “did not affect”.

TNFα: the “early classical NFκB activation (IKKα/β phosphorylation, IκBα degradation)” value in series [6] is “induced strong IKKα/β phosphorylation and IκBα degradation”.

With `CN[C@@H](C)C(=O)N[C@H]1CN(C(=O)CC(C)C)CC[C@H]2CC[C@@H](C(=O)NC(c3ccccc3)c3ccccc3)N2C1=O` [AT406], the “LTβR-mediated NIK accumulation and p100 processing” value in series [1] (LEC and SVEC4-10, anti-LTβR mAb, 25 μM AT406) is “promoted more LTβR-mediated NIK accumulation and p100 processing”.

As for `O=C1Cc2ccccc2C(=O)N1` [NIKi, 4H-isoquinoline-1,3-dione], in series [1] (setting [7]), the TRAF2 degradation entry is reported as “inhibited TRAF2 degradation” and the “p100 processing to p52” value is on record as “prevented”. In series [2], the “TRAF2 recruitment to the LTβR complex” value was “blocked” and the “TRAF3 recruitment to the LTβR complex” value is “blocked”. Besides, in series [3], the “LTβR-induced CCL21 transcription and production” value is recorded as “inhibited”; the “LTβR-induced VCAM-1 expression” value is listed as “did not affect”; the “LTβR-induced CCL2 expression/production” value is “partial inhibitory effect”. Also, the “NIK expression and co-localization with LTβR” value in series [5] was “neither ciLT, BAY11-7085, nor NIKi affected”.

Regarding RQIKIWFQNRRMKWKKPEEGAPGP [ciLT], in the series with LEC, the “LEC viability (MTT)” value is reported as “did not affect”.
